From patent publication US12129279B2, “Antimicrobial peptides and use of the same for treating microbial infections” (TZU CHI UNIVERSITY, priority 2022, dated 2024)
Residues, ends and D or L forms follow the SMILES beside them. No end group written: not given here.

Assays:
Type in all cases: cell-based
[1] = system: MDRAB (multidrug-resistant Acinetobacter baumannii); conditions: MDRAB (multidrug-resistant, 2 h)
Description: (§1) The antimicrobial activities of dK1, dK2, dK3, dK4 and dK5 were determined by bactericidal assays on laboratory strains of MRSA (methicillin-resistant Staphylococcus aureus) and MDRAB (multidrug-resistant Acinetobacter baumannii).
(§2) The bacteria were inoculated in Luria broth (LB) solid medium (BioShop Canada Inc., Ontario, Canada) (Focus Bioscience, Murrarrie, Australia). Single colonies were collected and inoculated in 8 mL of liquid medium, and the cultures were incubated overnight at 37° C., 200 rpm. On the next day, the bacterial cultures were centrifuged with a centrifuger (KUBOTA2800, KUBOTA, Osakashi, Japan) at 2500 rpm for 5 minutes at room temperature, and the supernatants were discarded. The pellets were mixed and suspended with 1×PBS (phosphate-buffered saline, PBS, pH 7.4) (PROTECH, Taipei, Taiwan). The step was repeated twice to wash the bacterial cells. After the washing step, the bacterial cells were then re-suspended in 1×PBS, and the concentrations of bacterial cells were adjusted to 1×10^7 CFU/mL.
(§3) In the bactericidal assay, 2700 μL of 1× PBS were mixed with 300 μL 1×10^7 CFU/mL bacteria suspension mentioned as negative control, and each of the solutions of dK1 to dK5 at different concentrations was mixed with 300 μL 1×10^7 CFU/mL bacteria suspension and 2700 μL of 1× PBS. The mixtures were incubated at 37° C., 200 rpm for 2 hours. After incubation, 100 μL of each of the control group samples and the experimental group samples were collected and put in Eppendorf centrifuge tubes, and followed by 10-fold serial dilution with 900 μL of 1× PBS. After the serial dilution, 100 μL of the sample from each group was inoculated on the LB solid medium. The experiments were carried out in triplicate for each group, and the LB solid media with samples were cultured at 37° C. for at least 18 hours. After overnight incubation at 37° C., bacterial colonies were counted. Bacterial survival rates of each group were determined as follows. % survival rate=[(Colonies formed from peptide-treated sample)/(Colonies formed from negative control)]×100%

[2] = system: MRSA (methicillin-resistant Staphylococcus aureus); conditions: 2 h
Description: as §1, §2, §3

in vitro = conditions: human
Description: For measuring the cytotoxicity of the antimicrobial peptides dK1, dK2 and dK3, a colorimetric 3-bis-(2-methoxy-4-nitro-5-sulfophenyl)-2H-tetrazolium-5-carboxanilide (XTT) dye reduction assay was employed. The cytotoxicity of the antimicrobial peptides of the invention were tested on Huh-7 and HeLa cells. The culture medium for Huh-7 is Dulbecco's modified eagle medium, DMEM (Gibco™, NY, USA) containing 10% fetal bovine serum (FBS) (Gibco™, NY, USA) 1% non-essential amino acid solution (NEAA) (Biological Industries, Beit HaEmek, Israel) and 1% streptomycin-penicillin solution (Gibco™, NY, USA). The culture medium for HeLa cells is Minimum Essential Medium (MEM) (Gibco™, NY, USA) containing 10% FBS (Gibco™, NY, USA), 1% sodium pyruvate (Gibco™, NY, USA), 1% NEAA (Biological Industries, Beit HaEmek, Israel) and 1% streptomycin-penicillin (Gibco™, NY, USA). […] The absorbance of the samples was measured at the 4th hour, and cell viability calculated to evaluate the cytotoxicity of the antimicrobial peptides. The absorbance of the samples was measured with an ELISA reader (EPOCH™, BioTek instruments, Inc., Winooski, USA) at a wavelength of 475 nm. The absorbance value of the positive control group was regarded as 0% cell viability, and the absorbance value of the negative control group was regarded as 100% cell viability. […]

CC(C)C[C@H](NC(=O)[C@H](CCCCN)NC(=O)[C@@H]1CCCN1C(=O)CNC(=O)[C@H](Cc1ccccc1)NC(=O)[C@H](CCCCN)NC(=O)[C@H](C)NC(=O)[C@@H]1CCCN1C(=O)[C@H](Cc1ccccc1)NC(=O)[C@H](CO)NC(=O)[C@H](C)NC(=O)[C@@H]1CCCN1C(=O)[C@H](CC(C)C)NC(=O)[C@@H](N)Cc1ccccc1)C(=O)N[C@@H](Cc1ccccc1)C(=O)N[C@@H](CS)C(=O)N[C@@H](CC(C)C)C(=O)N[C@H](C(=O)N[C@H](C(=O)N[C@@H](CCCCN)C(=O)N[C@@H](CCCCN)C(=O)N[C@@H](CS)C(=O)O)[C@@H](C)O)C(C)C [dK4] (H-FLPASFPAKFGPKLFCLVTKKC-OH; N-terminus and C-terminus assumed)
IC50 [1]: 8000 to 10000 nM

FLAIPSKPLKVAKPLGFALIIL [dK5]
IC50 [1]: 20000 to 25000 nM | IC50 [2]: 10000 to 15000 nM | MBC (minimum bactericidal concentration) against MRSA [2]: 30 to 40 µM

IVRRIWRAWARRVRLVARIPAV [dK1]
IC50 [1]: ~167 nM | MBC (minimum bactericidal concentration) against MDRAB [1]: 0.667 to 1.33 µM | IC50 [2]: ~195 nM | MBC (minimum bactericidal concentration) against MRSA [2]: 0.39 to 0.78 µM

RLIAAWRAVIRARVRARRAPIF [dK2]
IC50 [1]: 200 to 250 nM | MBC (minimum bactericidal concentration) against MDRAB [1]: 0.5 to 0.6 µM | IC50 [2]: ~390 nM | MBC (minimum bactericidal concentration) against MRSA [2]: 1.56 to 3.12 µM

RPFIVRAWRRAVARRARAILPI [dK3]
IC50 [1]: 195 to 390 nM | MBC (minimum bactericidal concentration) against MDRAB [1]: 0.78 to 1.56 µM | IC50 [2]: 1560 to 3120 nM | MBC (minimum bactericidal concentration) against MRSA [2]: 3.12 to 4.5 µM | cytotoxicity at 4 h, 2 μM (in vitro): 50%
